Laboratory results reported in patent US6168809A, “Alkaline-earth metal salt for the treatment of ocular or palpebral pruritus and dysesthesia” (Societe l'Oreal S.A., priority 1995, dated 2001).

Tests used:
[1] = system: TNF-alpha secretion by human monocytes (line U937); experiment: inhibition of secretion of TNF-alpha induced by PMA in human monocytes (line U937); type: cell-based; details: for inhibition of TNF-alpha: in words; for % inhibition of secretion of TNF-alpha induced by PMA: PMA 10 nM, 48 hours, 37° C., mean of 3 measurements
Description: This test is performed on human monocytes (line U937) stimulated by a phorbol ester (PMA) according to the method described by Schindler et al. (Correlations and interactions in the production of interleukin-6 (IL-6), IL-1, and Tumor Necrosis Factor (TNF) in human blood mononuclear cells: IL-6 suppresses IL-1 and TNF. Blood 75: 40-47 (1990)).
The phorbol ester (PMA) naturally stimulates the synthesis and/or the secretion of TNF-alpha by human monocytes in culture.
The activity of the molecules is evaluated according to their capacity to reduce or even suppress this TNF-alpha secretion.
The cells (monocytes) are incubated in the presence of PMA at the concentration of 10 nM for 48 hours at 37° C. The quantities of TNF-alpha secreted are quantified by immunoenzymatic assay (ECA) with the aid of commercially available kits.
Each molecule is tested at 3 different concentrations (10^-5, 10^-4 and 10^-3 M) and in each experiment, a reference molecule (dexamethasone) is studied at 7 concentrations as internal standard.
The results are expressed as percentage of inhibition relative to the positive control (without test molecule) after subtracting the background noise. A recapitulative table groups together the mean inhibitory effects obtained with the compounds. (The results are expressed as % inhibition; they are the mean of 3 measurements).

[2] = system: release of substance P; experiment: release of substance P caused by antidromic stimulation of the sciatic nerve, visualized by Evans blue staining; type: in vivo
From the text: The test consisted in determining the activity of various compounds on the release of substance P, which is caused by antidromic stimulation of the sciatic nerve. This release is visualized by staining with a stain (Evans blue). The greater the quantity of substance P released, the more intense the colour. In other words, the greater the inhibitory effect of the substance P antagonist on this release, the less intense the colour.

[Cl-].[Cl-].[Sr+2] [SrCl2, strontium chloride] was tested, and the “inhibition of TNF-alpha” value [1] was “inhibitors of TNF-alpha”.
With O=[N+]([O-])[O-].O=[N+]([O-])[O-].[Sr+2] [Sr(NO3)2, strontium nitrate] the “% inhibition relative to the control” value ([2]; Table 2, 3 μmol) was 71%, the “% inhibition of secretion of TNF-alpha induced by PMA” value (from here on “% inhibition of secretion … by PMA”) ([1]; 10^-3 M) was 75% and the “% inhibition of secretion … by PMA” value ([1]; 10^-4 M) was 28%. For the same compound, the “inhibition of TNF-alpha” value [1] was “inhibitors of TNF-alpha”.
In the case of [Cl-].[Cl-].[Mg+2] [Mg Cl2, magnesium chloride], the “% inhibition of secretion … by PMA” value ([1]; 10^-3 M) is reported as 70%, the “% inhibition of secretion … by PMA” value ([1]; 10^-4 M) is reported as 12% and the “inhibition of TNF-alpha” value [1] is reported as “inhibitors of TNF-alpha”.
In the case of [Ca+2].[Cl-].[Cl-] [CaCL2.7H2 O, calcium chloride], the “% inhibition of secretion … by PMA” value ([1]; 10^-3 M) is reported as 67%, the “% inhibition of secretion … by PMA” value ([1]; 10^-4 M) is reported as 22% and the “% inhibition of secretion … by PMA” value ([1]; 10^-5 M) is reported as 19%. The “inhibition of TNF-alpha” value [1] was “inhibitors of TNF-alpha”.
In the case of O.O.O.O.O.O.O.[Cl-].[Cl-].[Sr+2] [SrCl2 7H2O], the “% inhibition of secretion … by PMA” value ([1]; 10^-3 M) is reported as 54% and the “% inhibition of secretion … by PMA” value ([1]; 10^-5 M) is reported as 14%.
O=[N+]([O-])[O-].O=[N+]([O-])[O-].[Ca+2] [Ca(NO3)2, calcium nitrate] was tested, and the “inhibitory activity on the release of substance P” value ([2]; Table 1, in words, salts at the same concentration) was “no activity at all” and the “inhibitory activity on the release of substance P” value ([2]; Table 2, in words, calcium salt at a higher concentration level) was “no activity at all”.
